Results taken from publication PMC8536627, “Hydrolytic stability of anticancer drugs and one metabolite in the aquatic environment” (Environmental Science and Pollution Research International, 2021).
“And” between values parts separate entries of the source, which are not always exact repeats. Equal values may be shown once. “Also recorded” adds a separate entry of the source. Read-outs that look alike come from different tables or passages of the source. Each block holds one molecule with its values, some of them ahead of it.

Columns and labels:
[1] = milli-Q water, room temperature, natural pH; ref Franquet-Griell et al. [2017]; cited from earlier work
[2] = ref Gómez-Canela et al. [2015], cited from earlier work
physchem [3] = conditions: for Degradation level in the preliminary test / Hydrolytic stability in the preliminary test: 5 days; for Degradation level in the preliminary test: dark; for Hydrolytic stability in the preliminary test: pH 4, 7 and 9, 50 °C
Experimental: The incubation was performed in the dark, in order to avoid the influence of the photolysis on degradation of the analytes. The water used for the preparation of buffers was autoclaved, all glassware was clean, flushed with methanol, and dried in high temperature. Samples were closed in glass tubes with a sealed cap. The air from above the solution was removed by a nitrogen stream just before capping. In the preliminary test, solutions of single analytes were prepared in each tested pH: 4, 7, and 9, which is required by the OECD guidelines. There was also a blank sample prepared for each pH. Samples in the preliminary test were prepared in two parallel replicates. Moreover, the complete preliminary test was repeated twice. The preliminary test was performed at 50 °C for 5 days. […] In the case of the extended tests, 7 measuring points were provided during the time of the test. Each measuring point was performed in two parallel replicates. […] The test was conducted for 30 days or to 90 % elimination of a compound. Obtained results were used to determine the hydrolysis rate constant (k) using equation: 1 lnCt/C0=kt
The HPLC-UV/Vis technique was applied to determine the level of hydrolytic degradation of the analytes. In the preliminary test, the control and blank samples were analyzed at the beginning and the end of the test. […] In the extended test, the samples collected in the time intervals were analyzed, and peak areas were compared to those obtained at the beginning of the test. This was used to determine the kinetic of this hydrolysis process by using the Equation 1. In general, each analyte was analyzed by a simple HPLC method with UV/Vis detection. Gemini C18 (Phenomenex, USA), 5 μm, 110 Å, 150 mm × 4.6 mm chromatographic column was applied for each method and three different mobile phases were used (water or 0.1 % HCOOH) mixed with the acetonitrile. The conditions applied during the LC-MS analysis with an ion trap detector for the qualitative analysis of the samples collected after the extended tests at 20 and 70 °C are presented in the Table S2.

physchem [4] = type: physicochemical; conditions: for half-life: buffer
Experimental: Moreover, the complete preliminary test was repeated twice. […] Each measuring point was performed in two parallel replicates.
where t, time; ct, c0, concentration of the analyte at a time (0 means the beginning of the test); k, rate constant.
Based on this, the t1/2 was determined by using the equation: 2 t1/2=ln2/k
where t1/2, half-life of the analyte; k, rate constant.
The degradation was monitored for 30 days or until 90 % of a compound was degraded. Based on the obtained results (Fig. 4) the constant rates (k) and half-lives (t1/2) have been calculated (Table 1).
After determining the hydrolysis rate constants it was possible to calculate activation energy (Ea) of this process at each pH, either from plotting ln k from T^−1 (Figure 5) when there were three k values obtained for each compound and pH (CP at pH 4, 7, and 9 as well as IF at pH 4) or from the following equation (for IF at pH 7 and 9, where only two k values were obtained) (Table 1): 4 E=Rlnk2−lnk1/1/T1¯−1/T2
where R, gas constant (8.314 J/mol × K); k1, k2, rate constants for different temperatures; T, absolute temperature (K).

physchem [5] = type: physicochemical; conditions: for half-life: buffer, read-out: t½, extrapolated half-life (converted)
Experimental: By obtaining at least two rate constants for two different temperatures, it is possible to calculate the rate constants and, in consequence, half-lives at other temperatures, according to the Arrhenius equation: 3 k=A×e^−E/R×Torlnk=−E/R×T+lnA
Therefore, these equations were applied to extrapolate the obtained results and calculate the rate constants and half-lives of unstable anticancer drugs in more environmentally relevant temperatures (4, 10, or 15 °C), which are typical to natural waters.
Additionally, these observations confirm that CP is much more vulnerable for hydrolysis than IF, which is interesting how two isomers (like CP and IF) may differently undergo hydrolysis process. […] If the conclusions were drawn only based on the results from the preliminary experiments (incubation at 50 °C for 5 days), it would be assumed that both compounds, especially CP, are very unstable. […] Moreover, using Equation 3, it was possible to extrapolate the results to determine the rate constants and half-lives at the temperatures 4, 10, and 15 °C, which are ordinary for environmental waters (Table 2).

[6] = design: method as in Muñoz et al. ([1996]); conditions: 20 °C, pH 5; ref Muñoz et al. ([1996]); cited from earlier work
[7] = design: method as in Negreira et al. ([2013b]); conditions: acidification of samples, organic modifier such as 50 % methanol or DMSO, previously tested conditions; ref Negreira et al. ([2013b]); cited from earlier work
[8] = design: method as in Białk-Bielińska et al. [2017]; conditions: ref Białk-Bielińska et al. [2017]; cited from earlier work
[9] = HPLC water with 4 % DMSO, ref Negreira et al. ([2013a]), cited from earlier work

SMILES: O=C(O)CCCc1ccc(N(CCCl)CCCl)cc1 [chlorambucil]
Hydrolytic stability in milli-Q water [1]: highly unstable
Remaining part degraded within 24 h ([2]; hard water, initial concentration 10 ng μL^−1, within 24 h): 19%
Transformed at the beginning of the test ([2]; hard water, initial concentration 10 ng μL^−1): 81%
Transformation in hard water ([2]; initial concentration 2 ng μL^−1): instant and complete transformation

SMILES: O=P1(NCCCl)OCCCN1CCCl (stereo not drawn) [IF, ifosfamide]
Degradation level in the preliminary test (physchem [3]; pH 7, 50 °C): 22.3%
Degradation level in the preliminary test (physchem [3]; pH 9, 50 °C): 27.5%
Degradation in 30 days (physchem [4]; 20 °C, pH 7): no degradation occurred; also recorded: no changes in the initial concentration; also recorded: completely stable
Degradation in 30 days (physchem [4]; 20 °C, pH 9): no degradation occurred; also recorded: no changes in the initial concentration; also recorded: completely stable
k, hydrolysis rate constant (physchem [4]; 20 °C, pH 4): 0.00038 h⁻¹
k, hydrolysis rate constant (physchem [4]; 50 °C, pH 4): 0.008 h⁻¹
k, hydrolysis rate constant (physchem [4]; 50 °C, pH 7): 0.0029 h⁻¹
k, hydrolysis rate constant (physchem [4]; 50 °C, pH 9): 0.0036 h⁻¹
k, hydrolysis rate constant (physchem [4]; 70 °C, pH 4): 0.059 h⁻¹
k, hydrolysis rate constant (physchem [4]; 70 °C, pH 7): 0.041 h⁻¹
k, hydrolysis rate constant (physchem [4]; 70 °C, pH 9): 0.049 h⁻¹
half-life (physchem [4]; pH 4, 20 °C, pH 4, read-out: Half-life (converted)): ~80 days
half-life (physchem [4]; pH 4, 20 °C, pH 4, read-out: t½, half-life (converted)): 76.8 days
half-life (physchem [4]; pH 4, 50 °C, pH 4, read-out: t½, half-life (converted)): 3.6 days
half-life (physchem [4]; pH 4, 70 °C, pH 4, read-out: t½, half-life (converted)): 0.488 days
half-life (physchem [4]; pH 7, 50 °C, pH 7, read-out: t½, half-life (converted)): 10.1 days
half-life (physchem [4]; pH 7, 70 °C, pH 7, read-out: t½, half-life (converted)): 0.704 days
half-life (physchem [4]; pH 9, 50 °C, pH 9, read-out: t½, half-life (converted)): 7.99 days
half-life (physchem [4]; pH 9, 70 °C, pH 9, read-out: t½, half-life (converted)): 0.583 days
Ea, activation energy of hydrolysis (physchem [4]; pH 4): 20.1 kcal/mol
Ea, activation energy of hydrolysis (physchem [4]; pH 7): 29.21 kcal/mol
Ea, activation energy of hydrolysis (physchem [4]; pH 9): 29.21 kcal/mol and 28.7 kcal/mol
k, extrapolated rate constant (physchem [5]; 4 °C, pH 4): 8.3e-05 h⁻¹
k, extrapolated rate constant (physchem [5]; 4 °C, pH 7): 3e-06 h⁻¹
k, extrapolated rate constant (physchem [5]; 4 °C, pH 9): 4e-06 h⁻¹
k, extrapolated rate constant (physchem [5]; 10 °C, pH 4): 0.000107 h⁻¹
k, extrapolated rate constant (physchem [5]; 10 °C, pH 7): 5e-06 h⁻¹
k, extrapolated rate constant (physchem [5]; 10 °C, pH 9): 6e-06 h⁻¹
k, extrapolated rate constant (physchem [5]; 15 °C, pH 4): 0.000199 h⁻¹
k, extrapolated rate constant (physchem [5]; 15 °C, pH 7): 1.1e-05 h⁻¹
k, extrapolated rate constant (physchem [5]; 15 °C, pH 9): 1.6e-05 h⁻¹
half-life (physchem [5]; pH 4, 4 °C, pH 4): 349 days
half-life (physchem [5]; pH 4, 10 °C, pH 4): 271 days
half-life (physchem [5]; pH 4, 15 °C, pH 4): 146 days
half-life (physchem [5]; pH 7, 10 °C, pH 7): 6360 days
half-life (physchem [5]; pH 7, 15 °C, pH 7): 2580 days
half-life (physchem [5]; pH 9, 4 °C, pH 9): 6510 days
half-life (physchem [5]; pH 9, 10 °C, pH 9): 4520 days
half-life (physchem [5]; pH 9, 15 °C, pH 9): 1860 days
half-life [6]: around 620 days

SMILES: CCc1c2c(nc3ccc(OC(=O)N4CCC(N5CCCCC5)CC4)cc13)-c1cc3c(c(=O)n1C2)COC(=O)[C@]3(O)CC [irinotecan]
Hydrolytic stability in milli-Q water [1]: highly unstable

SMILES: N[C@@H](Cc1ccc(N(CCCl)CCCl)cc1)C(=O)O [melphalan]
Hydrolytic stability in milli-Q water [1]: highly unstable

SMILES: CC[C@]1(O)C[C@H]2CN(CCc3c([nH]c4ccccc34)[C@@](C(=O)OC)(c3cc4c(cc3OC)N(C=O)[C@H]3[C@@](O)(C(=O)OC)[C@H](OC(C)=O)[C@]5(CC)C=CCN6CC[C@]43[C@@H]65)C2)C1 [vincristine]
Hydrolytic stability in milli-Q water [1]: highly unstable

SMILES: COc1cccc2c1C(=O)c1c(O)c3c(c(O)c1C2=O)C[C@@](O)(C(C)=O)C[C@@H]3O[C@H]1C[C@H](N)[C@H](O)[C@H](C)O1 [daunorubicin]
Hydrolytic stability in milli-Q water [1]: highly unstable

half-life (physchem [3]; aqueous buffer): ≥ 365 days
Hydrolytic stability in the preliminary test (physchem [3]): hydrolytically stable
Degradation level in the preliminary test (physchem [3]; pH 4, 50 °C): 7%
SMILES: CN(Cc1nc2c(N)nc(N)nc2nc1O)c1ccc(C(=O)N[C@@H](CCC(=O)O)C(=O)O)cc1 [7-OH-MTX, 7-hydroxymethotrexate]
Stability after acidification and with organic modifier [7]: stable
Hydrolytic stability under ecotoxicological test conditions [8]: hydrolytically stable
Photolytic stability under ecotoxicological test conditions [8]: susceptible to photolysis
Remained intact ([9]; 4 °C, 24 h): 86%
Concentration decreased to ([9]; 4 °C, after 9 days): around 50%
Stability in 24 h test ([9]; 15 °C, 24 h): none of the 7-OH-MTX left in the solution
Degradation level / loss ([9]; 25 °C, 24 h incubation): full degradation

SMILES: Cc1ccc(NC(=O)c2ccc(CN3CCN(C)CC3)cc2)cc1Nc1nccc(-c2cccnc2)n1 [IMT, imatinib]
Hydrolytic stability in the preliminary test (physchem [3]): hydrolytically stable

SMILES: COc1c(C)c2c(c(O)c1C/C=C(\C)CCC(=O)O)C(=O)OC2 [mycophenolic acid]
Hydrolytic stability in milli-Q water [1]: stable

SMILES: CCCCCOC(=O)Nc1nc(=O)n([C@@H]2O[C@H](C)[C@@H](O)[C@H]2O)cc1F [capecitabine]
Hydrolytic stability in milli-Q water [1]: stable

SMILES: Nc1ccn([C@@H]2O[C@H](CO)[C@@H](O)C2(F)F)c(=O)n1 [gemcitabine]
Hydrolytic stability in milli-Q water [1]: stable

SMILES: COc1cccc2c1C(=O)c1c(O)c3c(c(O)c1C2=O)C[C@@](O)(C(=O)CO)C[C@@H]3O[C@H]1C[C@H](N)[C@H](O)[C@H](C)O1 [doxorubicin]
Hydrolytic stability in milli-Q water [1]: highly unstable
